Results taken from patent USH505H, “Boron uptake in tumors, cerebrum and blood from [10B]NA4B24H22S2” (The United States of America as represented by the United …, priority 1986, dated 1988).

Test system: Harding-Passey (HP) melanomas
Assay: Boron concentrations in melanoma tumor, blood and cerebrum of mice after intraperitoneal administration (prompt gamma analysis)
Parameters: species or system female BALB/cJ mice
Conditions: mouse, in vivo, ip
Method: Aqueous solutions of [^10 B]Na2 B12 H11 SH or [^10 B]Na4 B24 H22 S2 were infused slowly intraperitoneally [~200 μl capacity osmotic pump, model 2001, Alza Corp., Palo Alto, Calif.] or were injected intraperitoneally promptly into 15-20 g female BALB/cJ mice bearing subcutaneously implanted Harding-Passey (HP) melanomas. In experiment 6 (Table 1), 5.3×10^-3 M Na2 S2 O5 was added to retard oxidation of [B12 H11 SH]^2-. Mice were deeply anesthetized with ether and then killed by exsanguination at times specified in Table 1. The osmotic pumps were designed to function for 219±6 hr, although the precise duration of their infusion in each mouse is unknown.
Tissue and blood specimens in quartz test tubes, with sufficient H2 O added to bring each sample to a total weight of 1.00 g, were analyzed for boron by counting 478 keV gamma photons from the ^10 B(n,αγ)^7 Li reaction during irradiation by slow neutrons.

Substance: Na2 B12 H11 SH
- Blood boron concentration (34.5 mg/kg, 24 h): 6.3 ± 2.2 μgB/g
- Cerebrum boron concentration (34.5 mg/kg, 24 h): 4.9 ± 3.8 μgB/g
- Concentration ratio Tumor:Blood (34.5 mg/kg, 24 h): 1.0
- Tumor boron concentration (34.5 mg/kg, 24 h): 6.3 ± 2.2 μgB/g
- Blood boron concentration (35.4 mg/kg, 6 h): 3.8 ± 9.9 μgB/g
- Cerebrum boron concentration (35.4 mg/kg, 6 h): 3.8 ± 3.4 μgB/g
- Concentration ratio Tumor:Blood (35.4 mg/kg, 6 h): 2.3
- Tumor boron concentration (35.4 mg/kg, 6 h): 8.7 ± 9.9 μgB/g
- Blood boron concentration (35.5 mg/kg, 12 h): 5.5 ± 4.8 μgB/g
- Cerebrum boron concentration (35.5 mg/kg, 12 h): 0.9 ± 1.6 μgB/g
- Concentration ratio Tumor:Blood (35.5 mg/kg, 12 h): 1.0
- Tumor boron concentration (35.5 mg/kg, 12 h): 5.5 ± 4.8 μgB/g
- Blood boron concentration (187 mg/kg, 190 h): 13.2 ± 6.3 μgB/g
- Cerebrum boron concentration (187 mg/kg, 190 h): 7.0 μgB/g
- Concentration ratio Tumor:Blood (187 mg/kg, 190 h): 1.0
- Tumor boron concentration (187 mg/kg, 190 h): 12.6 ± 1.7 μgB/g
- Blood boron concentration (187 mg/kg, 219 h): 4.9 ± 1.1 μgB/g
- Cerebrum boron concentration (187 mg/kg, 219 h): 1.0 ± 0.4 μgB/g
- Concentration ratio Tumor:Blood (187 mg/kg, 219 h): 1.6
- Tumor boron concentration (187 mg/kg, 219 h): 7.9 ± 1.5 μgB/g
- Blood boron concentration (195 mg/kg, 219 h): 5.5 ± 3.0 μgB/g
- Cerebrum boron concentration (195 mg/kg, 219 h): 1.2 ± 1.0 μgB/g
- Concentration ratio Tumor:Blood (195 mg/kg, 219 h): 1.5
- Tumor boron concentration (195 mg/kg, 219 h): 8.5 ± 2.9 μgB/g
- Blood boron concentration (262 mg/kg, 234 h): 7.7 ± 4.6 μgB/g
- Cerebrum boron concentration (262 mg/kg, 234 h): 3.2 ± 0.0 μgB/g
- Concentration ratio Tumor:Blood (262 mg/kg, 234 h): 1.8
- Tumor boron concentration (262 mg/kg, 234 h): 14.1 ± 1.1 μgB/g
